Laboratory results: patent US10335372B2, “Compositions with modified nucleases targeted to viral nucleic acids and methods of use for prevention and treatment of viral diseases” (priority 2004, dated 2019)

Test system: FMDV of O-type
Details: guinea pig, in vivo

Substance: RNase: recombinant / wild-type human RNase I (Examples 22, 30, 31)
- resistance to FMD on repeated infection: resistant to FMD following subsequent repeated infection
